Measured values published in patent publication US11878966B2, “Substituted 4-benzyl and 4-benzoyl piperidine derivates” (89BIO LTD, priority 2015, dated 2024).
Where a name gives a salt, the structure may show the parent alone.

Columns and labels:
[1] = target: T1, recombinant human baculovirus-expressed GST-tagged FASN (Homo sapiens, UniProt P49327); assay: FASN enzyme activity assay: fluorescence-based detection of CoA with CPM; format: biochemical; settings: 5 nM FASN, 150 μM NADPH, 10 μM acetyl-CoA, 25 μM malonyl-CoA, 90 minutes incubation
T1 construct: GST; host or cells: baculovirus expression system (insect cells implied)
How it was run: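 IC50 values were fitted (variable-slope sigmoid) to percent inhibition from CPM fluorescence (390/530 nm) reporting free CoA after a 30 min labelling step. The reaction ran 90 min after malonyl-CoA (25 μM) addition, with 10 μM acetyl-CoA, 150 μM NADPH, 5 nM recombinant GST-FASN, 50 mM HEPES pH 7.5 and 0.5% DMSO.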

T1 sequence (P49327 whole entry): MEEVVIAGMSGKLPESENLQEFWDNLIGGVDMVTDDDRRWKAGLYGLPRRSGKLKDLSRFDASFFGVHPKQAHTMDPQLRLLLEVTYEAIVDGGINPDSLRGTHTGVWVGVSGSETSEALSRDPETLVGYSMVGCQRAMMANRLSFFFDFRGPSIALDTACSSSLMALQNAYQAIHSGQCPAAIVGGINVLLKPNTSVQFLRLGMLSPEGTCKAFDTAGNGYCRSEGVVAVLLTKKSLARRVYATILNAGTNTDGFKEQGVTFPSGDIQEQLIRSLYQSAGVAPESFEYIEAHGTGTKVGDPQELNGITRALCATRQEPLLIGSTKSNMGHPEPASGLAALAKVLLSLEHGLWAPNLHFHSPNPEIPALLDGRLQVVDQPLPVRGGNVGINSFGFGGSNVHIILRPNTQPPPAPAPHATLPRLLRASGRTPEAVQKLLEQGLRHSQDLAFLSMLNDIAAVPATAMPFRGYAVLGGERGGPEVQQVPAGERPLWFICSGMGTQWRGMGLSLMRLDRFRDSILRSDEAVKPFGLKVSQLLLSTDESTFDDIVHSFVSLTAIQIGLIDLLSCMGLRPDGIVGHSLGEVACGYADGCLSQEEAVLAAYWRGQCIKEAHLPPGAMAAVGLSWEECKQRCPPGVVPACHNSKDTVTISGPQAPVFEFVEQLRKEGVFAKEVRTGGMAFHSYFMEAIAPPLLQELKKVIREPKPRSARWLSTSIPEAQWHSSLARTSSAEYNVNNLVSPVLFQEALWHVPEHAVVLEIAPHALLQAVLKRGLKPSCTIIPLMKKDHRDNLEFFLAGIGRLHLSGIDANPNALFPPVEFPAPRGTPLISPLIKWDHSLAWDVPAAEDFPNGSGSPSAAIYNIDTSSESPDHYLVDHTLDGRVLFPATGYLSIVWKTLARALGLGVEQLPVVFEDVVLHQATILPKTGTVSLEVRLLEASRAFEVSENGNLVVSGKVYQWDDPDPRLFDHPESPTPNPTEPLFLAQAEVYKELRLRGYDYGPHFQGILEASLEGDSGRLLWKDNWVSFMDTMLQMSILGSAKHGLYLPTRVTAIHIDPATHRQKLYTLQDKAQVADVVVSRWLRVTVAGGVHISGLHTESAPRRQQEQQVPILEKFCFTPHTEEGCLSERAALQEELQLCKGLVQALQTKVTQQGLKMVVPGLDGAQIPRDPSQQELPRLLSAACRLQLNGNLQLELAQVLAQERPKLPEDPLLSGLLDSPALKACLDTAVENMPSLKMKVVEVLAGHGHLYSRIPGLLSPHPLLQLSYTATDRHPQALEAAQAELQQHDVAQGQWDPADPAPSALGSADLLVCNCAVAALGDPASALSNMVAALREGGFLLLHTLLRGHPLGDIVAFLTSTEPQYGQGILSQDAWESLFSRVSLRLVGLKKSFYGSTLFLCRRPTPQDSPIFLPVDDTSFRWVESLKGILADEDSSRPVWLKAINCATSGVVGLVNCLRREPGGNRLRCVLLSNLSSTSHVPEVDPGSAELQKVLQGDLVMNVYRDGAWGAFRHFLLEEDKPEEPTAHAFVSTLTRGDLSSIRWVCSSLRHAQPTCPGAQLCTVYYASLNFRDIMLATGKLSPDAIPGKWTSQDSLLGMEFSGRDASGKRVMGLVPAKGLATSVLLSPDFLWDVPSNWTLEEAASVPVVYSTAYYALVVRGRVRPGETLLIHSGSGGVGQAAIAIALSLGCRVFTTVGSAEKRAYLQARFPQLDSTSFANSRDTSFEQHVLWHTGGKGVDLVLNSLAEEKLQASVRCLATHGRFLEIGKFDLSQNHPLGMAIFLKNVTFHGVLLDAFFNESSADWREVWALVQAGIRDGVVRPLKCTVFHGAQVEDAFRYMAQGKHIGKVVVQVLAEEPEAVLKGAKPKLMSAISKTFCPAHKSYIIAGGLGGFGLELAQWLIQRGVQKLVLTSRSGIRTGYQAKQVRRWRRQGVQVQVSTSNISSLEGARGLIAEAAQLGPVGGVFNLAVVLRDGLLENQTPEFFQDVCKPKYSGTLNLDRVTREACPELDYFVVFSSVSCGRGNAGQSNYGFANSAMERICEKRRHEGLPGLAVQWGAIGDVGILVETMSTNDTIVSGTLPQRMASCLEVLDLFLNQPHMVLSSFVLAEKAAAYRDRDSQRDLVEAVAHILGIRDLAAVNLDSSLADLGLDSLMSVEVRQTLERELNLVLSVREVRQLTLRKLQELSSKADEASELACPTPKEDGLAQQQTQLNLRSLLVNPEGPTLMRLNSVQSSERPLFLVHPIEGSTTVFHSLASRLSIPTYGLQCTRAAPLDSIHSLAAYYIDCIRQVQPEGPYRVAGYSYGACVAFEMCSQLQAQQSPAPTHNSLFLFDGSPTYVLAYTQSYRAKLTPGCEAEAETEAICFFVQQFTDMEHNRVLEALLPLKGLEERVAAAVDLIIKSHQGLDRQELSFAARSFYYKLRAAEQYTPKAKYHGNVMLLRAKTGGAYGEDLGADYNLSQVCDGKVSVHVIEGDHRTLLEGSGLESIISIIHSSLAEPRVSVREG

Row | SMILES | melting point [°C] | IC50 [1] [nM]
1 | CCC(=O)N1CCC(C2(c3ccc(-c4cnc5ccccc5c4)cc3)CC2)CC1 [Example 40, 1-{4-[1-(4-quinolin-3-yl-phenyl)-cyclopropyl]-piperidin-1-yl}-propan-1-one] | 153 to 155 | 1 to 99
2 | CCC(=O)N1CCC(C(C)c2ccc(-c3cnc4ccccc4c3)cc2)CC1 (stereo not shown) (as salt: HCl) [Example 39, 1-(4-(1-(4-(quinolin-3-yl)phenyl)ethyl)piperidin-1-yl)propan-1-one] | 178 to 180 | 
3 | CCC(=O)N1CCC(C(C)c2ccc(-c3cnc4ccccc4c3)cc2)CC1 (single isomer, unassigned) (as salt: HCl) [Example 67, 1-{4-[1-(4-Quinolin-3-yl-phenyl)-ethyl]-piperidin-1-yl}-propan-1-one] | 215 to 219 | 
4 | CCC(=O)N1CCC(C(C)c2ccc(-c3cnc4ccccc4c3)cc2)CC1 (single isomer, unassigned) (as salt: HCl) [Example 68, 1-{4-[1-(4-Quinolin-3-yl-phenyl)-ethyl]-piperidin-1-yl}-propan-1-one] | 219 to 221 | 
5 | CC(c1ccc(-c2cnc3ccccc3c2Cl)cc1)C1CCN(C(=O)[C@H]2CCCO2)CC1 (mixture of isomers) [Example 77, (4-{1-[4-(4-Chloroquinolin-3-yl)-phenyl]-ethyl}-piperidin-1-yl)-(R)-tetrahydrofuran-2-yl-methanone] |  | 1 to 99
6 | O=C(C1CC1)N1CCC(C2(c3ccc(-c4ccc5cccnc5c4)cc3)CC2)CC1 [Example 45, Cyclopropyl-{4-[1-(4-quinolin-7-yl-phenyl)-cyclopropyl]-piperidin-1-yl}-methanone] |  | 100 to 999
7 | CCC(=O)N1CCC(C(F)c2ccc(-c3cnc4ccccc4c3)cc2)CC1 (stereo not shown) [Example 6, 1-{4-[Fluoro-(4-quinolin-3-yl-phenyl)-methyl]-piperidin-1-yl}-propan-1-one] |  | 1 to 99

Results, then the compound that gave them:

Row | melting point [°C] | IC50 [1] [nM] | SMILES
8 | 176 | 1000 to 10000 | CC(C)C(=O)N1CCC(O)(Cc2ccc(-c3ccc4[nH]ccc4c3)cc2)CC1 [Example 155, 1-(4-(4-(1H-indol-5-yl)benzyl)-4-hydroxypiperidin-1-yl)-2-methylpropan-1-one]
9 | 78 | 1000 to 10000 | CCC(=O)N1CCC(O)(Cc2ccc(-c3cncc4ccccc34)cc2)CC1 [Example 158, 1-(4-hydroxy-4-(4-(isoquinolin-4-yl)benzyl)piperidin-1-yl)propan-1-one]
10 | 100 | 1000 to 10000 | CCC(=O)N1CCC(O)(Cc2ccc(-c3ccc4[nH]ccc4c3)cc2)CC1 [Example 154, 1-(4-(4-(1H-indol-5-yl)benzyl)-4-hydroxypiperidin-1-yl)propan-1-one]
11 |  | 1 to 99 | O=C(C1CC1)N1CCC(F)(Cc2ccc(-c3cncc4ccccc34)cc2)CC1 [Example 177, Cyclopropyl(4-fluoro-4-(4-(isoquinolin-4-yl)benzyl)piperidin-1-yl)methanone]
12 |  | 100 to 999 | Cc1nccc2cc(-c3ccc(C(OCCCN4CCOCC4)C4CCN(C(=O)[C@H]5CCCO5)CC4)cc3)ccc12 (stereo partly drawn) [Example 86, {4-[[4-(1-Methylisoquinolin-6-yl)-phenyl]-(3-morpholin-4-yl-propoxy)-methyl]-piperidin-1-yl}-(R)-tetrahydrofuran-2-yl-methanone]
13 |  | 100 to 999 | O=C(C1CC1)N1CCC(F)(Cc2ccc(-c3ccc4occc4c3)cc2)CC1 [Example 179, (4-(4-(benzofuran-5-yl)benzyl)-4-fluoropiperidin-1-yl)(cyclopropyl)methanone]
14 |  | 1000 to 10000 | CCC(=O)N1CCC(C(CC)(OC)c2ccc(-c3cnc4ccccc4c3)cc2)CC1 (stereo not shown) [Example 210, 1-{4-[1-Methoxy-1-(4-quinolin-3-yl-phenyl)-propyl]-piperidin-1-yl}-propan-1-one]
15 |  | 1 to 99 | Cc1c(-c2ccc(CC3CCN(C(=O)[C@H]4CCCO4)CC3)cc2)ccc2nccn12 [Example 93, {4-[4-(5-Methyl-imidazo[1,2-a]pyridin-6-yl)-benzyl]-piperidin-1-yl}-(R)-tetrahydrofuran-2-yl-methanone]
